The source of these data is article PMC5581131, “The novel sphingosine-1-phosphate receptors antagonist AD2900 affects lymphocyte activation and inhibits T-cell entry into the lymph nodes” (Oncotarget, 2017).

The structures appear in SMILES notation.

In one assay the target is T1, S1P3 (Homo sapiens, UniProt Q99500).
T1 construct: expressed in transfected cells; host or cells: S1P3 NFAT-bla CHO cells
As to the kind of experiment: S1P3 antagonist test, S1P3 NFAT-bla CHO cells. It counts as cell-based. The conditions noted are these: S1P3 NFAT-BLA CHO cell line. Here is the method:
Since AD2900 is a sphingolipid analogue with properties that resemble those of S1P, we intended to examine its ability to interact with the S1P receptors. To delineate whether AD2900 can function as an agonistic or antagonistic compound to any of the S1P receptors, we used a high-throughput screening cell-based assay, employing cell lines stably transfected with human S1P receptors 1, 2, 3, 4, or 5 [37]. In this experiment, a compound with an IC50 or EC50 value ≤10 μM for a certain S1P receptor is considered active as an antagonist or an agonist, respectively. The results illustrate that AD2900 acts as an antagonist to all S1P receptors (Table 1, Supplementary Figure 3). […] No agonist activation was evident.
The S1P1 agonist test and S1P2, S1P3, S1P4, and S1P5 agonist and antagonist tests were conducted as previously described using S1P1 CRE-bla CHO cells, S1P2 CRE-bla CHO cells, S1P3 NFAT-bla CHO cells, Tango™ S1P4 (EDG6)-bla U-2 OS cells, and Tango™ S1P5 ([…])-bla U-2 OS cells. The S1P1 antagonist assay was carried out according to the manufacturer’s instructions using a Tango™ S1P1 (EDG1)-bla U-2 OS Cell-Based Assay (Invitrogen, NY, USA).

The next assay has as its system activated PBMCs. In words: Apoptosis of activated PBMCs, AnnexinV-PI FACS after MLR. It counts as cell-based, human. The settings on record: 1-day pretreatment, 5 days of MLR. The protocol: Figure 1 AD2900 inhibits human lymphocyte proliferation in allogeneic activation (A, B) The levels of proliferative response of human peripheral blood lymphocytes (PBMCs) after 1-day pretreatment with different concentrations of AD2900, AD2750, YZ138, YZ158, and YZ297 (A) or AD2900, FTY720, and SEW2871 (B) were tested by human allogeneic mixed lymphocyte reaction (MLR) assay, followed by a [3H] thymidine incorporation analysis. (C) Apoptosis of AD2900-treated activated PBMCs was tested by AnnexinV-propidium iodide (PI) FACS analysis following 1-day AD2900 pretreatment and MLR. All the samples were compared to the untreated PBMC control. (D) IFN-γ secretion from activated PBMCs was tested by ELISA following a 1-day AD2900 pretreatment in MLR. On the 5th day of hMLR, supernatants were collected and assayed for the level of IFN-γ. (E) Jurkat cell viability after a 1-day treatment with different concentrations of AD2900, FTY720, and SEW2871 was tested by XTT viability assay. […]
Human PBLs were collected from human whole blood collected from healthy donors. […] For the thymidine incorporation assay, after 4 days of co-culture, cells were pulsed with ^3H-thymidine at 1 μCi (0.037MBq) per well (PerkinElmer, MA, USA) for 16 additional hours and then harvested onto glass-fiber filters. ^3H-thymidine incorporation was measured using Top Count. […]

T1 sequence (Q99500 whole entry): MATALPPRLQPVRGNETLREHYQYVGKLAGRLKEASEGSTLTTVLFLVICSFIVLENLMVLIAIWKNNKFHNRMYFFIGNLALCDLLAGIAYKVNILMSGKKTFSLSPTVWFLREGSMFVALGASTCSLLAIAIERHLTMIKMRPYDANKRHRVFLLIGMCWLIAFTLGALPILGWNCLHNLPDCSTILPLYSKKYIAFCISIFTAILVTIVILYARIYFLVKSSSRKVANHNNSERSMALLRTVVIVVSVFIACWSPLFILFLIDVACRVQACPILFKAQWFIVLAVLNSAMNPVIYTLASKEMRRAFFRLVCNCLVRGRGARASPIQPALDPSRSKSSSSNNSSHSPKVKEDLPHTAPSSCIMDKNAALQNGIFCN

Broadly, the IC50 is the concentration needed to halve the response being measured. On to `CCCCCCCCCCCCCCCCNC(CO)(CO)CO` [AD2900], for which the IC50 at S1P3 came to 6.2 µM. The “concentrations at which apoptosis was induced on activated PBMCs” value with activated PBMCs is given as “above 10 μM”.
